Reference: publication PMC12814168, “Fast, Bright, and Reversible Fluorescent Labeling of Rhodamine-Binding Proteins” (Journal of the American Chemical Society, 2025)

How the values were obtained:
[1] = Spectral properties: absolute quantum yield, extinction coefficient, brightness; type: physicochemical
Procedure: Serially fluorophore dilutions (0 – 3 μM) were prepared in activity buffer in presence or absence […]
Measurements were performed in 200 μL volumes in clear-bottom non-binding […]
recorded on the Spark20M microplate reader (Tecan). Following baseline correction, the absorbance was plotted against the dye concentration and the data were fitted linearly. Path […]
(§1) coefficients were calculated via the Lambert-Beer law (Equation 1).
Absolute quantum yields were determined at room temperature using a Hamamatsu Quantaurus-QY spectrometer (C11347 model). Rhodamine dyes (1 μM) were tested with and without excess […]
Samples were prepared in 800 μL glass vials
Quantum yield represent as mean ± standard deviation from three technical replicates. The brightness was thereafter calculated using Equation 5. […]

SiR-tag [2] = biological target: T1, SiR-tag; assay: Fluorescence intensity titration of 20 nM SiR with serial protein dilutions, 50 mM HEPES, 50 mM NaCl, pH 7.3 with BSA, 25 °C, 4 independent measurements.; type: binding; details: read-out: K D (SiR), SiR-tag; SD, n = 4
T1 construct: 2 + PROSS8 background combined with P57M/F58Y/R60L and G63N/F64K/D65N/M66H; His10-TEV
Text: 4 Bioluminescent Rho-tag and far-red SiR-tag. A) Schematic representation of direct excitation (left) or bioluminescence (BRET, right) of Rho-tag/TMR. B) AlphaFold2 (AF2) model of RhoLuc (N-Rho-tag^1‑64-GSG-cpNLuc^67/68-GS-Rho-tag^67‑158-C). cpNLuc^67/68 was inserted into the 64/67 site of Rho-tag. Tertiary structures are represented as colored cartoons and surface. The TMR ligand presented as yellow sticks. 3-Methoxyfurimazine (3MF) was modeled into the structure by aligning a crystal structure of NLuc (PDB-ID7SNT) to the AF model and is represented as blue sticks. pLDDT: 93.88. C) Bioluminescence profile of RhoLuc (dark blue, insertion), NLuc-Rho-tag (light blue, terminal fusion), or NLuc (gray). […] The fluorescence emission spectra were recorded upon the addition of Nano-Glo substrate (Promega 1:1000). BRET ratio (in brackets) is given as I 593/I 459. […] The fluorescence emission spectrum of 50 nM dye was recorded in the presence and absence of 20 μM protein. […]
SGCAA medium was used for induction and cells were grown at 30 °C, 250 rpm for 20 h. […] Samples were filtered through 5 mL round-bottom tubes with cell strainer caps (Falcon) and analyzed directly by FACS. […]
PMT voltages were set based on negative controls (no protein expression). Gates were applied for FSC, SSC, and fluorescence; signals >10³ (bilirubin or rhodamine dyes) were considered positive, background ≤10². […]

SiR-tag [3] = assay: Fluorescence emission increase (FI/FI0) of SiR upon binding to SiR-tag; type: biochemical; details: 50 nM dye, with vs without 20 μM protein
Procedure: The thermal stability of Rho-tag variants was assessed using nano differential scanning fluorimetry (nanoDSF) on a Prometheus NT48 (NanoTemper Technologies). Protein samples (100 µM in activity buffer) were subjected to a thermal gradient from 20° C to 95° C at 1 °C / min.
The intrinsic fluorescence ratio (350 / 330 nm) of tryptophan / tyrosine residues was monitored, and the melting temperature (TM) was determined as the inflection point of this ratio curve. Each sample was analyzed in technical duplicate (N=2), and results are reported as mean ± standard […]
Fluorescence emission spectra
To evaluate fluorescence turn-on or quenching (F I/FI0), rhodamine dyes (2 – 50 nM) were incubated with or without excess Rho-tag (20 μM) in activity buffer containing 0.5% BSA (w/v).
Measurements were performed in black 384-well plates (Greiner) using the Spark20M microplate reader (Tecan) in technical replicates.
FI/FI0 was defined as the ratio of fluorescence intensity with protein to that without at the emission […]
recorded on the Spark20M microplate reader (Tecan). Following baseline correction, the absorbance was plotted against the dye concentration and the data were fitted linearly. […]
as §1
Absolute quantum yields were determined at room temperature using a Hamamatsu Quantaurus-QY spectrometer (C11347 model). […]

Rho-tag = biological target: T2, Rho-tag (Chlorobaculum tepidum, UniProt Q8KFZ1, A66M/D121K/D126E/E36V/E70D/F125Y/F62Y/G107D/G67E/H40T/K51V/M64F/N138A/Q25R/S152V/S33N/S65D/V17Q/V87I); assay: Fluorescence intensity titration of SiR with serial Rho-tag dilutions, 50 mM HEPES, 50 mM NaCl, pH 7.3 with BSA, 25 °C.; type: binding; details: SD, n = 3
T2 construct: gene CT0179; His10-TEV, recombinant from E. coli
T2 sequence (Q8KFZ1 entry or part of it with the stated changes): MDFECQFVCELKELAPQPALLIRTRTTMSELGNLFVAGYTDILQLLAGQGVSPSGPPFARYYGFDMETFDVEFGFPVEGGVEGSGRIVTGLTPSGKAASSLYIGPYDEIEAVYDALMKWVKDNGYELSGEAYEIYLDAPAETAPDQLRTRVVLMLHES
Procedure: electroporation buffer, aliquoted (12 x 50 µL) on ice, and used immediately for electroporation with 1–5 µg DNA precipitated DNA. Cells were transferred to pre-chilled 0.2 cm gap electroporation cuvettes (Bio-Rad), and electroporated using a Gene Pulser Xcell (0.54 kV, 25 µF, infinite resistance, exponential decay). Cells were recovered in 2 mL YPDS at 30 °C, shaking for 1 h and afterwards expanded in 100 mL SDCAA at 30 °C for 2 days.
YSD protein expression, staining and sorting
regions were amplified via KOD PCR reaction using primers containing unique barcodes (NGS adaptor ligation oligos, Eurofins Genomics) analyzed by NGS sequencing (Illumina technology, Eurofins Genomics). The NGS results were analyzed using a custom-build pipeline as described previously. […] Alternatively, plasmid DNA was transformation into E.cloni 10G and single colonies were analyzed by Sanger sequencing (Eurofins). […]
and 1 (fully bound dye). The dissociation constants KD were determined by fitting a single-site […]

[4] = with 20 µM Rho-tag (TMR, JF549) or SiR-tag (SiR, JF646)

CN(C)c1ccc2c(c1)[Si](C)(C)c1cc(N(C)C)ccc1C21OC(=O)c2ccccc21 [SiR, silicon rhodamine]
Absolute quantum yield Φ ([1]; HaloTag7-bound): 0.546 ± 0.018 | Brightness ε × Φ ([1]; HaloTag7-bound): 068 ± 1 M-1cm-1 × 103 | Extinction coefficient ε ([1]; HaloTag7-bound): 125 ± 15 M-1cm-1 × 103 | Brightness ε × Φ ([1]; buffer): 067 ± 2 M-1cm-1 × 103 | Extinction coefficient ε ([1]; buffer): 120 ± 22 M-1cm-1 × 103 | Absolute quantum yield Φ ([1]; buffer (unbound dye)): 0.562 ± 0.003 | Absolute quantum yield Φ [1, 4]: 0.649 ± 0.012 | Brightness ε × Φ [1, 4]: 105 ± 1 M-1cm-1 × 103 | Extinction coefficient ε [1, 4]: 162 ± 30 M-1cm-1 × 103 | Kd (SiR-tag [2]): 0.048 µM | Fluorescence increase FI/FI0 upon binding to SiR-tag (SiR-tag [3]): 13 fold | Kd (Rho-tag): 6.5 µM
